In US20240208961A1, “EIF4E INHIBITORS AND USES THEREOF” (PIC Therapeutics, Inc., priority 2022, published 2024):
Several values for one entry are separate records, joined by “and”; a condition that tells them apart may be missing. Equal entries are not always repeated. Where two headings read alike, the source gives them in different places.

Tests used:
[1] = Pharmacokinetic studies of certain compounds in female Balb/c mice (Example 5); assay type: in vivo; conditions: for concentration at 0.083 h / concentration at 0.25 h / concentration at 0.5 hr / concentration at 1 hr / concentration at 2 hr / concentration at 4 hr / concentration at 8 hr / concentration at 24 hr / concentration at 0.5 h / concentration at 1 h / concentration at 2 h / concentration at 4 h / concentration at 8 h / concentration at 24 h: female, Balb/c
Summary of the method: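 Female Balb/c mice (N=9) were fasted overnight and given compound PO as a suspension in 1% CMC/0.2% Tween 80 or IV in 5% DMSO/5% Solutol HS15/90% saline. Facial-vein plasma was taken from 0.083 to 24 h and assayed by LC-MS. Parameters are non-compartmental, and F was based on AUCINF or AUClast.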

Human eIF4E (aa 28-217) = biological target: T1, Human eIF4E (aa 28-217) (Homo sapiens, UniProt P06730); test: 4G-eIF4E protein-based assay (TR-FRET, biotin labeled 4G2 peptide); assay type: binding
T1 construct: Human eIF4E (aa 28-217) with a C-terminal His-tag; made in house
T1 sequence (P06730 28-217): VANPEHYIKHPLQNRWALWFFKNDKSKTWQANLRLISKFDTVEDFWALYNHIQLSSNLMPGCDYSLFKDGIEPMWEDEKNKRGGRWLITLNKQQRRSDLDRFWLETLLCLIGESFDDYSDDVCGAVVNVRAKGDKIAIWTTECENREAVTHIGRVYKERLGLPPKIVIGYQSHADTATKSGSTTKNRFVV

[2] = mouse, plasma, I-27 PO 30 mg/kg

Plasma concentration Individual ([1]; I-27 IV 1 mg/kg, 0.083 hr, 1 mg/kg): 4810 ng/mL and 5030 ng/mL
Plasma concentration Individual ([1]; I-27 IV 1 mg/kg, 0.25 hr, 1 mg/kg): 1300 ng/mL and 1270 ng/mL
Plasma concentration Individual ([1]; I-27 IV 1 mg/kg, 0.5 hr, 1 mg/kg): 584 ng/mL and 448 ng/mL
Plasma concentration Individual ([1]; I-27 IV 1 mg/kg, 1 hr, 1 mg/kg): 393 ng/mL and 335 ng/mL
Plasma concentration Individual ([1]; I-27 IV 1 mg/kg, 2 hr, 1 mg/kg): 213 ng/mL and 163 ng/mL
Plasma concentration Individual ([1]; I-27 IV 1 mg/kg, 4 hr, 1 mg/kg): 31.7 ng/mL and 29.9 ng/mL
Plasma concentration Individual ([1]; I-27 IV 1 mg/kg, 8 hr, 1 mg/kg): 5.02 ng/mL and 8.89 ng/mL
Plasma concentration Individual ([1]; I-27 IV 1 mg/kg, 24 hr, BQL = below quantifiable limit of 1.00 ng/mL, 1 mg/kg): BQL
F ([1]; I-27 PO 30 mg/kg vs IV 1 mg/kg): 27.4%
Plasma concentration Individual ([1]; I-27 PO 30 mg/kg, 0.083 hr, 30 mg/kg): 80.4 ng/mL and 62.5 ng/mL
Plasma concentration Individual ([1]; I-27 PO 30 mg/kg, 0.25 hr, 30 mg/kg): 368 ng/mL and 587 ng/mL
Plasma concentration Individual ([1]; I-27 PO 30 mg/kg, 0.5 hr, 30 mg/kg): 1590 ng/mL and 1270 ng/mL
Plasma concentration Individual ([1]; I-27 PO 30 mg/kg, 1 hr, 30 mg/kg): 2120 ng/mL and 2090 ng/mL
Plasma concentration Individual ([1]; I-27 PO 30 mg/kg, 2 hr, 30 mg/kg): 2860 ng/mL and 1950 ng/mL
Plasma concentration Individual ([1]; I-27 PO 30 mg/kg, 4 hr, 30 mg/kg): 2160 ng/mL and 1760 ng/mL
Plasma concentration Individual ([1]; I-27 PO 30 mg/kg, 8 hr, 30 mg/kg): 715 ng/mL and 493 ng/mL
Plasma concentration Individual ([1]; I-27 PO 30 mg/kg, 24 hr, 30 mg/kg): 11.0 ng/mL and 10.1 ng/mL
concentration at 0.083 h ([1]; mouse, plasma, iv, 1 mg/kg, I-27 IV 1 mg/kg, 0.083 hr, read-out: Plasma concentration Individual): 4410 ng/mL
concentration at 0.083 h ([1]; mouse, plasma, iv, 1 mg/kg, I-27 IV 1 mg/kg, 0.083 hr, read-out: Plasma concentration Mean): 4750 ng/mL
concentration at 0.25 h ([1]; mouse, plasma, iv, 1 mg/kg, I-27 IV 1 mg/kg, 0.25 hr, read-out: Plasma concentration Individual): 865 ng/mL
concentration at 0.25 h ([1]; mouse, plasma, iv, 1 mg/kg, I-27 IV 1 mg/kg, 0.25 hr, read-out: Plasma concentration Mean): 1140 ng/mL
concentration at 0.5 hr ([1]; mouse, plasma, iv, 1 mg/kg, I-27 IV 1 mg/kg, 0.5 hr, read-out: Plasma concentration Individual): 638 ng/mL
concentration at 0.5 hr ([1]; mouse, plasma, iv, 1 mg/kg, I-27 IV 1 mg/kg, 0.5 hr, read-out: Plasma concentration Mean): 557 ng/mL
concentration at 1 hr ([1]; mouse, plasma, iv, 1 mg/kg, I-27 IV 1 mg/kg, 1 hr, read-out: Plasma concentration Individual): 341 ng/mL
concentration at 1 hr ([1]; mouse, plasma, iv, 1 mg/kg, I-27 IV 1 mg/kg, 1 hr, read-out: Plasma concentration Mean): 356 ng/mL
concentration at 2 hr ([1]; mouse, plasma, iv, 1 mg/kg, I-27 IV 1 mg/kg, 2 hr, read-out: Plasma concentration Individual): 142 ng/mL
concentration at 2 hr ([1]; mouse, plasma, iv, 1 mg/kg, I-27 IV 1 mg/kg, 2 hr, read-out: Plasma concentration Mean): 173 ng/mL
concentration at 4 hr ([1]; mouse, plasma, iv, 1 mg/kg, I-27 IV 1 mg/kg, 4 hr, read-out: Plasma concentration Individual): 55.9 ng/mL
concentration at 4 hr ([1]; mouse, plasma, iv, 1 mg/kg, I-27 IV 1 mg/kg, 4 hr, read-out: Plasma concentration Mean): 39.2 ng/mL
concentration at 8 hr ([1]; mouse, plasma, iv, 1 mg/kg, I-27 IV 1 mg/kg, 8 hr, read-out: Plasma concentration Individual): 7.46 ng/mL
concentration at 8 hr ([1]; mouse, plasma, iv, 1 mg/kg, I-27 IV 1 mg/kg, 8 hr, read-out: Plasma concentration Mean): 7.12 ng/mL
concentration at 24 hr ([1]; mouse, plasma, iv, 1 mg/kg, I-27 IV 1 mg/kg, 24 hr, BQL = below quantifiable limit of 1.00 ng/mL, read-out: Plasma concentration Individual): 1.09 ng/mL
concentration at 24 hr ([1]; mouse, plasma, iv, 1 mg/kg, I-27 IV 1 mg/kg, 24 hr, BQL = below quantifiable limit of 1.00 ng/mL, read-out: Plasma concentration Mean): 1.09 ng/mL
concentration at 0.083 h ([1]; mouse, plasma, po, 30 mg/kg, I-27 PO 30 mg/kg, 0.083 hr, read-out: Plasma concentration Individual): 40.5 ng/mL
concentration at 0.083 h ([1]; mouse, plasma, po, 30 mg/kg, I-27 PO 30 mg/kg, 0.083 hr, read-out: Plasma concentration Mean): 61.1 ng/mL
concentration at 0.25 h ([1]; mouse, plasma, po, 30 mg/kg, I-27 PO 30 mg/kg, 0.25 hr, read-out: Plasma concentration Individual): 448 ng/mL
concentration at 0.25 h ([1]; mouse, plasma, po, 30 mg/kg, I-27 PO 30 mg/kg, 0.25 hr, read-out: Plasma concentration Mean): 468 ng/mL
concentration at 0.5 h ([1]; mouse, plasma, po, 30 mg/kg, I-27 PO 30 mg/kg, 0.5 hr, read-out: Plasma concentration Individual): 2080 ng/mL
concentration at 0.5 h ([1]; mouse, plasma, po, 30 mg/kg, I-27 PO 30 mg/kg, 0.5 hr, read-out: Plasma concentration Mean): 1650 ng/mL
concentration at 1 h ([1]; mouse, plasma, po, 30 mg/kg, I-27 PO 30 mg/kg, 1 hr, read-out: Plasma concentration Individual): 1930 ng/mL
concentration at 1 h ([1]; mouse, plasma, po, 30 mg/kg, I-27 PO 30 mg/kg, 1 hr, read-out: Plasma concentration Mean): 2050 ng/mL
concentration at 2 h ([1]; mouse, plasma, po, 30 mg/kg, I-27 PO 30 mg/kg, 2 hr, read-out: Plasma concentration Individual): 2040 ng/mL
concentration at 2 h ([1]; mouse, plasma, po, 30 mg/kg, I-27 PO 30 mg/kg, 2 hr, read-out: Plasma concentration Mean): 2280 ng/mL
concentration at 4 h ([1]; mouse, plasma, po, 30 mg/kg, I-27 PO 30 mg/kg, 4 hr, read-out: Plasma concentration Individual): 2050 ng/mL
concentration at 4 h ([1]; mouse, plasma, po, 30 mg/kg, I-27 PO 30 mg/kg, 4 hr, read-out: Plasma concentration Mean): 1990 ng/mL
concentration at 8 h ([1]; mouse, plasma, po, 30 mg/kg, I-27 PO 30 mg/kg, 8 hr, read-out: Plasma concentration Individual): 613 ng/mL
concentration at 8 h ([1]; mouse, plasma, po, 30 mg/kg, I-27 PO 30 mg/kg, 8 hr, read-out: Plasma concentration Mean): 607 ng/mL
concentration at 24 h ([1]; mouse, plasma, po, 30 mg/kg, I-27 PO 30 mg/kg, 24 hr, read-out: Plasma concentration Individual): 14.2 ng/mL
concentration at 24 h ([1]; mouse, plasma, po, 30 mg/kg, I-27 PO 30 mg/kg, 24 hr, read-out: Plasma concentration Mean): 11.8 ng/mL
AUC(0-inf) ([1]; mouse, plasma, I-27 IV 1 mg/kg): 2170 ng·h/mL
AUC(0-t) ([1]; mouse, plasma, I-27 IV 1 mg/kg): 2160 ng·h/mL
C0 ([1]; mouse, plasma, I-27 IV 1 mg/kg): 9630 ng/mL
MRT inf ([1]; mouse, plasma, I-27 IV 1 mg/kg): 1.13 h
MRT last ([1]; mouse, plasma, I-27 IV 1 mg/kg): 1.04 h
clearance ([1]; mouse, plasma, I-27 IV 1 mg/kg): 7.68 mL/min/kg
half-life ([1]; mouse, plasma, I-27 IV 1 mg/kg): 4.29 h
Vd ([1]; mouse, plasma, I-27 IV 1 mg/kg, read-out: Vss): 0.52 L/kg
AUC(0-inf) [1, 2]: 17900 ng·h/mL
AUC(0-t) [1, 2]: 17800 ng·h/mL
Cmax [1, 2]: 2280 ng/mL
MRT inf [1, 2]: 4.74 h
MRT last [1, 2]: 4.68 h
Tmax [1, 2]: 2 h
half-life [1, 2]: 2.73 h
IC50 (Human eIF4E (aa 28-217)): ≤ 500 nM
SMILES: CC(C)Cc1sc(Nc2ncc(-c3cccs3)cc2C(=O)O)nc1C1(C)CCCCC1 [Compound I-27]
